Experimental data published in ChEMBL document CHEMBL1201862, “PubChem BioAssay data set” (2004).
Calls of active or inactive are those of the source.

Columns and labels:
[1] = NIH3T3 cell viability loss – ATP luminescence, mouse fibroblasts, counter-screen, dose response (AID 2010); type: functional, cell-based;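 also: cells exposed to compound for about 90 hours before reading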
[2] = HepG2 cell cytotoxicity, dose response, cytotoxicity control, set 3 (AID 504853); type: functional; conditions: Mycobacterium tuberculosis
[3] = microbe, parasite or virus in culture; type: functional; conditions: Mycobacterium tuberculosis
[4] = THP-1 cell cytotoxicity, dose response, cytotoxicity control for non-replicating M. tuberculosis project (AID 489025); type: functional
[5] = A Cell Based Secondary Assay to Explore Cytotoxicity in THP-1 Cells of Compounds that Modulate Mycobacterium tuberculosis in Media Containing Glycerol versus Media without Glycerol (2).; type: functional
[6] = Trypanosoma cruzi growth suppression in host cells – NIH3T3 host cells, beta-gal luminescence, confirmation (AID 2044); type: functional, cell-based;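 also: intracellular parasites grown in NIH/3T3 mouse fibroblasts as host cells; luminescent beta-galactosidase reporter signal from transgenic T. cruzi replicating inside host cells; inhibitors lower the luminescence signal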
[7] = Vero cell cytotoxicity, cytotoxicity control for M. tuberculosis inhibitor project, purified and synthesized samples, set 3 (AID 504684); type: functional
[8] = A Cell Based Secondary Assay to Explore Cytotoxicity in HepG2 Cells of Compounds that Modulate Mycobacterium tuberculosis in Media Containing Glycerol versus Media without Glycerol (2).; type: functional
[9] = Vero E6 cell cytotoxicity, dose response, cytotoxicity control for non-replicating M. tuberculosis project, secondary assay (AID 492998); type: functional, VeroE6; conditions: Vero C1008
[10] = Vero cell cytotoxicity, dose response, cytotoxicity control for M. tuberculosis growth inhibitor project, Vero cells, purified and synthesized compounds, set 5 (AID 504909); type: functional; conditions: Mycobacterium tuberculosis
[11] = Vero cell cytotoxicity, dose response, cytotoxicity control for M. tuberculosis growth inhibitor project, Vero cells, purified and synthesized compounds, set 4 (AID 504854); type: functional; conditions: Mycobacterium tuberculosis
[12] = HepG2 cell cytotoxicity, cytotoxicity control, set 4 (AID 504910); type: functional; conditions: Mycobacterium tuberculosis
cells = type: functional
[13] = THP-1 cell cytotoxicity, cytotoxicity control, set 4 (AID 504911); type: functional; conditions: Mycobacterium tuberculosis
[14] = THP-1 cell cytotoxicity, dose response, cytotoxicity control, set 3 (AID 504852); type: functional; conditions: Mycobacterium tuberculosis
[15] = biological target: T1, Short transient receptor potential channel 4 (Mus musculus, UniProt Q9QUQ5); assay: calcium entry via TRPC4 opening agents – cell-based, HEK293 TRPC4/mu-opioid, Fluo-4 calcium, dose response (AID 434937); type: functional
T1 sequence (Q9QUQ5 whole entry): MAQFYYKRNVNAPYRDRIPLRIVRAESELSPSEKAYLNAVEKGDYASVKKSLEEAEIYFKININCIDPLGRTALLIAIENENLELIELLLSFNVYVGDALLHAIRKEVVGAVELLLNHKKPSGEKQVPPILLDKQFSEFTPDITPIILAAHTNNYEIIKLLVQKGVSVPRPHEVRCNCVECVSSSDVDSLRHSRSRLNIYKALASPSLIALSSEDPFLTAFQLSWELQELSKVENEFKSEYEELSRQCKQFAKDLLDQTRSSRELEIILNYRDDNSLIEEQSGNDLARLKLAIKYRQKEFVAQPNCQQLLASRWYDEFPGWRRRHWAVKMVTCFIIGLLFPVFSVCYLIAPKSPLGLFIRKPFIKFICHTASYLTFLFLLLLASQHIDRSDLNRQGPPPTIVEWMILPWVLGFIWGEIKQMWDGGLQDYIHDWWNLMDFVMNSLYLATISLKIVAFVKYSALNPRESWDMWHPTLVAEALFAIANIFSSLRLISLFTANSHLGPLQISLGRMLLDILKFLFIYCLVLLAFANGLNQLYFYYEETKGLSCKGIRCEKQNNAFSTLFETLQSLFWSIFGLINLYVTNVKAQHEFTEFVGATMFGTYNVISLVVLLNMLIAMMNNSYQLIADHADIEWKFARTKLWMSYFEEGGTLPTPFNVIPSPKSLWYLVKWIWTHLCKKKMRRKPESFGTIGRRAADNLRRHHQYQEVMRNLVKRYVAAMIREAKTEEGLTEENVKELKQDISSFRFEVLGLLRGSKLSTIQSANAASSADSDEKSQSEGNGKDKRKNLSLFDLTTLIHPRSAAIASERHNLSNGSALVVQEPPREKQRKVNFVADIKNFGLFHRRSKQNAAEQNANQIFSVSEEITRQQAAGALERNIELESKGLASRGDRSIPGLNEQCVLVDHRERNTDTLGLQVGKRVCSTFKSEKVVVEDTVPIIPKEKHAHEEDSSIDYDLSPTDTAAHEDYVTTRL

Mu-type opioid receptor = Mu-type opioid receptor (Homo sapiens, UniProt P35372); assay: (§1) Counterscreen for agonists of heterodimerization of the mu 1 (OPRM1) and delta 1 (OPRD1) opioid receptors: Luminescence-based cell-based high throughput dose response assay to identify agonists of OPRM1 homodimerization.; type: functional
Mu-type opioid receptor, sequence (P35372 whole entry): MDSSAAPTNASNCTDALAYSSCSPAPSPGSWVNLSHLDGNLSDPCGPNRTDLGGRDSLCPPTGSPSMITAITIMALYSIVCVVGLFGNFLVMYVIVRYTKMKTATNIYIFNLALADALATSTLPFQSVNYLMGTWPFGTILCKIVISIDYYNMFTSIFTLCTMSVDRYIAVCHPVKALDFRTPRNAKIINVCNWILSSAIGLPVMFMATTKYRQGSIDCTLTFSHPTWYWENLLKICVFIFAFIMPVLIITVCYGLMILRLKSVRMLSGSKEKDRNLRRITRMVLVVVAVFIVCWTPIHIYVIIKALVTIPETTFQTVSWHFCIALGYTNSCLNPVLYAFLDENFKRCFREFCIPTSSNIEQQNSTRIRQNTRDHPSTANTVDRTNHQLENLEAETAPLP

[16] = biological target: T2, High affinity choline transporter 1 (Homo sapiens, UniProt Q9GZV3); assay: human choline transporter blockers, potency – cell-based, 10-point CRC, membrane potential dye, dose response (AID 588401); type: functional;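 also: membrane potential dye fluorescence of choline-evoked depolarization via CHT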
T2 sequence (Q9GZV3 whole entry): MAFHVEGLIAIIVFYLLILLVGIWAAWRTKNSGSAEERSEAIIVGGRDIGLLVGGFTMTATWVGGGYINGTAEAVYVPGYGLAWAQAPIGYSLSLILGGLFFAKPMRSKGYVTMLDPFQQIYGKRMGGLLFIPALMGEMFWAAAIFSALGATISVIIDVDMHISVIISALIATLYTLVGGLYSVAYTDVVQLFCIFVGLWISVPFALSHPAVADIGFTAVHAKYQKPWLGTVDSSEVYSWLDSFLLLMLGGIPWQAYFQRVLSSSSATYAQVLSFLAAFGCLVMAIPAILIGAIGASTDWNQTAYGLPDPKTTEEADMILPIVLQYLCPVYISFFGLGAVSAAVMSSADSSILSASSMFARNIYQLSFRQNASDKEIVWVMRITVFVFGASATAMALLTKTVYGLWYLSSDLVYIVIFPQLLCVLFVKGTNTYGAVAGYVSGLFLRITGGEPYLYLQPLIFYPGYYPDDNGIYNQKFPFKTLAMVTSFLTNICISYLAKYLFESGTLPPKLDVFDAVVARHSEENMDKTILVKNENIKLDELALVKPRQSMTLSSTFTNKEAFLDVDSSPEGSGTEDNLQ

[17] = biological target: Delta-type opioid receptor (Homo sapiens, UniProt P41143); assay: as §1, with “of OPRD1” for “of OPRM1”, “homodimerization. [Related pubchem assays (depositor defined):AID504326, AID504355, AID504692, AID504904, AID504905]” for “homodimerization.”; type: functional
Delta-type opioid receptor, sequence (P41143 whole entry): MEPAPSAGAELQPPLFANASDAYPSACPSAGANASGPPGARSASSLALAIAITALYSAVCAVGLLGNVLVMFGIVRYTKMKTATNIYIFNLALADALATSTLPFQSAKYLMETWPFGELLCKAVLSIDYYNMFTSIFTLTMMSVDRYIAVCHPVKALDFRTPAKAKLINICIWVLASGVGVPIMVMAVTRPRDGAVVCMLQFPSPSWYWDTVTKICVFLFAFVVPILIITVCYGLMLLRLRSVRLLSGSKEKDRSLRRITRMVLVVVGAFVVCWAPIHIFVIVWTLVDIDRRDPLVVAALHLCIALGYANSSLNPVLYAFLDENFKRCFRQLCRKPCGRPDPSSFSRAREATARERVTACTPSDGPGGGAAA

[18] = biological target: T2, High affinity choline transporter 1; assay: human choline transporter blockers, potency – cell-based, 5-point CRC, membrane potential dye, dose response (AID 504840); type: functional
[19] = biological target: 5-hydroxytryptamine receptor 5A (Homo sapiens, UniProt P47898); assay: Counterscreen for agonists of OPRM1-OPRD1 heterodimerization: luminescence-based cell-based high throughput dose response assay to identify agonists of 5-hydroxytryptamine (serotonin) 5A receptor (HTR5A). [Related pubchem assays (depositor defined):AID504326, AID504355, AID504692, AID504904, AID504905]; type: functional
5-hydroxytryptamine receptor 5A, sequence (P47898 whole entry): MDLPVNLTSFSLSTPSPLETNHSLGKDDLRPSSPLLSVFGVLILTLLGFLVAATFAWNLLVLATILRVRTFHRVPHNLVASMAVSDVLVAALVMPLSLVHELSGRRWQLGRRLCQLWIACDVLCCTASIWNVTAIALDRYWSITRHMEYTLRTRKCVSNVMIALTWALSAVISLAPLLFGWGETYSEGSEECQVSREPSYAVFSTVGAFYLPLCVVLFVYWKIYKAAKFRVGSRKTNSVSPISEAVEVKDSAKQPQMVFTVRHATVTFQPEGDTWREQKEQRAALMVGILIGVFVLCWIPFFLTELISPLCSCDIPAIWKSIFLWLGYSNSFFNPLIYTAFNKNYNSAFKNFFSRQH

[20] = biological target: T3, Neuropeptides B/W receptor type 1 (Homo sapiens, UniProt P48145); assay: human NPBW1 receptor blockade, IC50 – cell-based, fluorescence, dose response, set 6, late-stage follow-up (AID 588583); type: functional
T3 sequence (P48145 whole entry): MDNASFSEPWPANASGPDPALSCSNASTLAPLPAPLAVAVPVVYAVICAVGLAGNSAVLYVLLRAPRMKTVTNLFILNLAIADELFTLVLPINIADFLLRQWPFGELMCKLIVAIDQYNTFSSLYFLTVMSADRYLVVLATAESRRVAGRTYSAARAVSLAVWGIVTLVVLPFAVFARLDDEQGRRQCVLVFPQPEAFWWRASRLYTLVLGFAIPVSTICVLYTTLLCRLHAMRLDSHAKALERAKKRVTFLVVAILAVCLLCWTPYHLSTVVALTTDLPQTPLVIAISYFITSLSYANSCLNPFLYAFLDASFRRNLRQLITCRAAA

[21] = biological target: Melanin-concentrating hormone receptor 1 (Homo sapiens, UniProt Q99705); assay: Late-stage fluorescence-based counterscreen for antagonists of the G-protein coupled receptor 7 (GPR7): cell-based dose response assay to identify antagonists of the melanin-concentrating hormone receptor 1 (MCHR1) Set 6.; type: functional
Melanin-concentrating hormone receptor 1, sequence (Q99705 whole entry): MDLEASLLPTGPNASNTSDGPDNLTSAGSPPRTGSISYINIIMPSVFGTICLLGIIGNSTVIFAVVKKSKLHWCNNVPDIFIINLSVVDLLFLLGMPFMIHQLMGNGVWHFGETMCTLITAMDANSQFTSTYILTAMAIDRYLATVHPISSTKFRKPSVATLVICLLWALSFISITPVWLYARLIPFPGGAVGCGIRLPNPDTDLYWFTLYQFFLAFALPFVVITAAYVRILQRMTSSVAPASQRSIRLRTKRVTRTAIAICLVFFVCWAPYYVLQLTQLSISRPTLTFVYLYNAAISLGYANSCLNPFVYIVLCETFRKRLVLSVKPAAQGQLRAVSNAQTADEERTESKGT

Cc1[nH]c2ccccc2c1C(=O)COC(=O)c1ccc([N+](=O)[O-])s1
EC50 [1]: > 30 µM (not active) | CC50 [2]: 21 µM (active) | CC50 [3]: 32.2 µM (active) | CC50 [4]: 29.6 µM (active) | CC50 [5]: 25.1 µM (active) | EC50 [6]: 1.75 µM (active) | CC50 [7]: 25.7 µM (active) | CC50 [8]: 20.7 µM (active) | CC50 [9]: > 20 µM (active) | CC50 [10]: > 63.9 µM (active) | CC50 [11]: 29 µM (active) | CC50 [12]: 30.3 µM (active) | IC50 (cells): 3.59 µM (active) | CC50 [13]: 32.3 µM (active) | CC50 [14]: 16.3 µM (active)

CCOc1ccc(S(=O)(=O)Nc2cccc(C(=O)NCC(c3ccccc3)N(C)C)c2)cc1 (stereo not drawn)
EC50 [15]: 2.99 µM (active) | EC50 (Mu-type opioid receptor): > 92.5 µM (inactive) | IC50 [16]: 3.76 µM (active) | EC50 [17]: 14.1 µM (inactive) | IC50 [18]: 4.43 µM (active) | EC50 [19]: > 92.5 µM (inactive)

CCc1cnn(Cc2cccc3ccccc23)c(=O)c1C(C#N)c1ccccc1 (stereo not drawn)
IC50 [20]: 15.2 µM (inactive) | IC50 [21]: 15.2 µM (inactive)
